For orientation: IC50 means the point on the concentration scale where inhibition reaches its midpoint.

For this test, the target named is mIgG A22-4′ (anti-S. flexneri serotype 6 LPS monoclonal antibody) binding to SF6 LPS. In words: Inhibition ELISA: binding of mIgG A22-4′ to synthetic oligosaccharides (inhibition of mIgG binding to SF6 LPS). The arrangement: species or system mouse. As to conditions: concentration of oligosaccharide required to inhibit 50% of mIgG A22-4′ (0.025 μg/ml) binding to purified SF6 LPS (strain Sc544); oligosaccharides tested as propyl glycoside; max 2.5 mM; ≤ = inferior to but close to the value. How it is done:
2) ELISA for IC50 Measurements
The binding of the available mIgG A22-4′ to the synthetic oligosaccharides was measured as previously described (Phalipon A. et al (J. Immunol. 176 1686 (2006)). Briefly, the mIgG concentration to be used was defined in the first step. To do so, a standard curve was established for mIgG A22-4′. The mIgG was incubated at different concentrations, overnight at 4° C., on microtiter plates coated with SF6 LPS purified from the strain SF6 Sc544 at a concentration of […] in a carbonate buffer (pH 9.6), then with PBS-BSA 1% for 30 min at 4° C. After washing with PBS-Tween 20 (0.05%), alkaline phosphatase conjugated anti-mouse IgG was added at a dilution of 1/5,000 (Sigma-Aldrich) for 1 h at 37° C. After washing with PBS-Tween 20 (0.05%), the substrate was added (12 mg of p-nitrophenyl phosphate in 1.2 mL of 1 M Tris-HCl buffer (pH 8.8) and 10.8 mL of 5 M NaCl). Once the color developed, the plate was read at 405 nm Dynatech MR400 microplate reader). A standard curve OD=f([Ab]) was fitted to the quadratic equation Y=aX2+bX+c, where Y is the OD and X is the Ab concentration. A correlation factor (r^2) of 0.99 was routinely obtained. The mIgG A22-4′ concentration to be used in the second step for measuring the IC50, which is defined as the concentration of oligosaccharides required to inhibit 50% of mIgG binding to LPS, was chosen as follows. It corresponds to the minimal concentration of mAb which gives the maximal OD on the standard curve.
The maximum concentration tested was 2.5 mM for all oligosaccharides. Then, measurement of unbound mIgG was performed as described above using microtiter plates coated with purified SF6 LPS. The mAb concentration was deduced from the standard curve. A 100% unbound mIgG concentration was defined for the mAb incubated in the same conditions but without any oligosaccharide. […]
The binding of mIgG A22-4′ to the synthetic and oligo- or polysaccharides was evaluated in inhibition ELISA (Table B)
Background: ELISA stands for enzyme-linked immunosorbent assay.

The molecule `CCCO[C@@H]1O[C@H](CO)[C@H](O)[C@H](O[C@@H]2O[C@H](C(=O)O)[C@H](O[C@@H]3O[C@@H](C)[C@H](O)[C@@H](O)[C@H]3O[C@@H]3O[C@@H](C)[C@H](O)[C@@H](OC(C)=O)[C@H]3O)[C@H](O)[C@H]2O)[C@H]1NC(C)=O` [AcCDAB, Propyl 3-O-acetyl-α-L-rhamnopyranosyl-(1→2)-α-L-rhamnopyranosyl-(1→4)-β-D-galactopyranosyluronic acid-(1→3)-2-acetamido-2-deoxy-β-D-galactopyranoside] showed an IC50 of 36 µM.

As to `CCCO[C@@H]1O[C@@H](C)[C@H](O)[C@@H](OC(C)=O)[C@H]1O[C@@H]1O[C@H](CO)[C@H](O)[C@H](O[C@@H]2O[C@H](C(=O)O)[C@H](O[C@@H]3O[C@@H](C)[C@H](O)[C@@H](O)[C@H]3O[C@@H]3O[C@@H](C)[C@H](O)[C@@H](OC(C)=O)[C@H]3O)[C@H](O)[C@H]2O)[C@H]1NC(C)=O` [AcCDABAcC, Propyl 3-O-acetyl-α-L-rhamnopyranosyl-(1→2)-α-L-rhamnopyranosyl-(1→4)-β-D-galactopyranosyluronic acid-(1→3)-2-acetamido-2-deoxy-β-D-galactopyranosyl-(1→2)-3-O-acetyl-α-L-rhamnopyranoside], the IC50 was at most 500 µM. Regarding `CCCO[C@@H]1O[C@H](CO)[C@H](O)[C@H](O[C@@H]2O[C@H](C(=O)O)[C@H](O[C@@H]3O[C@@H](C)[C@H](O)[C@@H](O)[C@H]3O[C@@H]3O[C@@H](C)[C@H](O)[C@@H](O)[C@H]3O)[C@H](O)[C@H]2O)[C@H]1NC(C)=O` [CDAB, Propyl α-L-rhamnopyranosyl-(1→2)-α-L-rhamnopyranosyl-(1→4)-β-D-galactopyranosyluronic acid-(1→3)-2-acetamido-2-deoxy-β-D-galactopyranoside], the IC50 was 16 µM.

The record behind these values is US10376593B2, “Glycoconjugates and their use as potential vaccines against infection by Shigella flexneri” (INSTITUT PASTEUR, priority 2012, dated 2019).
